Measured values: the NIST ThermoML archive (doi:10.1021/acs.jced.9b00396)

Details: Liquid; for speed of sound: Frequency=3 MHz, Single path-length method; for mass density: Vibrating tube method

OCc1ccccc1 [benzenemethanol]
Details	mass density [kg/m3]	speed of sound [m/s]
293.15 K, 100 kPa	1045.6	1541
298.15 K, 100 kPa	1041.8	1526
298.15 K, 500 kPa	1042	–
298.15 K, 1000 kPa	1042	–
298.15 K, 2500 kPa	1043	–
298.15 K, 5000 kPa	1044	–
298.15 K, 7500 kPa	1045	–
298.15 K, 10000 kPa	1046	–
298.15 K, 12500 kPa	1047	–
298.15 K, 15000 kPa	1049	–
298.15 K, 17500 kPa	1050	–
298.15 K, 20000 kPa	1051	–
298.15 K, 22500 kPa	1052	–
298.15 K, 25000 kPa	1053	–
298.15 K, 27500 kPa	1055	–
298.15 K, 30000 kPa	1056	–
298.15 K, 32500 kPa	1057	–
298.15 K, 35000 kPa	1058	–
313.15 K, 100 kPa	1030	1479
318.15 K, 500 kPa	1026	–
318.15 K, 1000 kPa	1026	–
318.15 K, 2500 kPa	1027	–
318.15 K, 5000 kPa	1028	–
318.15 K, 7500 kPa	1030	–
318.15 K, 10000 kPa	1031	–
318.15 K, 12500 kPa	1032	–
318.15 K, 15000 kPa	1034	–
318.15 K, 17500 kPa	1035	–
318.15 K, 20000 kPa	1036	–
318.15 K, 22500 kPa	1037	–
318.15 K, 25000 kPa	1039	–
318.15 K, 27500 kPa	1040	–
318.15 K, 30000 kPa	1041	–
318.15 K, 32500 kPa	1042	–
318.15 K, 35000 kPa	1043	–
333.15 K, 100 kPa	1011.3	1417
338.15 K, 500 kPa	1010	–
338.15 K, 1000 kPa	1010	–
338.15 K, 2500 kPa	1011	–
338.15 K, 5000 kPa	1013	–
338.15 K, 7500 kPa	1014	–
338.15 K, 10000 kPa	1016	–
338.15 K, 12500 kPa	1017	–
338.15 K, 15000 kPa	1018	–
338.15 K, 17500 kPa	1020	–
338.15 K, 20000 kPa	1021	–
338.15 K, 22500 kPa	1023	–
338.15 K, 25000 kPa	1024	–
338.15 K, 27500 kPa	1025	–
338.15 K, 30000 kPa	1026	–
338.15 K, 32500 kPa	1028	–
338.15 K, 35000 kPa	1029	–
358.15 K, 500 kPa	994	–
358.15 K, 1000 kPa	994	–
358.15 K, 2500 kPa	995	–
358.15 K, 5000 kPa	997	–
358.15 K, 7500 kPa	998	–
358.15 K, 10000 kPa	1000	–
358.15 K, 12500 kPa	1001	–
358.15 K, 15000 kPa	1003	–
358.15 K, 17500 kPa	1005	–
358.15 K, 20000 kPa	1006	–
358.15 K, 22500 kPa	1007	–
358.15 K, 25000 kPa	1009	–
358.15 K, 27500 kPa	1010	–
358.15 K, 30000 kPa	1012	–
358.15 K, 32500 kPa	1013	–
358.15 K, 35000 kPa	1014	–
378.15 K, 500 kPa	977	–
378.15 K, 1000 kPa	978	–
378.15 K, 2500 kPa	979	–
378.15 K, 5000 kPa	980	–
378.15 K, 7500 kPa	982	–
378.15 K, 10000 kPa	984	–
378.15 K, 12500 kPa	985	–
378.15 K, 15000 kPa	987	–
378.15 K, 17500 kPa	989	–
378.15 K, 20000 kPa	990	–
378.15 K, 22500 kPa	992	–
378.15 K, 25000 kPa	994	–
